Test results reported in patent US20240208992A1, “MACROCYCLES AS CFTR MODULATORS” (Idorsia Pharmaceuticals Ltd, priority 2021, published 2024).

Target: human F508del-CFTR (Homo sapiens, UniProt P13569, DEL508-508)
Assay: F508del-CFTR cell surface expression (corrector activity), DiscoveRx ß-galactosidase complementation chemiluminescence assay in recombinant U2OS cell line;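 also: U2OS cells co-expressing ProLink-tagged F508del-CFTR and a membrane-anchored enzyme acceptor, where more surface CFTR restores β-galactosidase activity measured by chemiluminescence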
Conditions: for EC50: EC50, F508del-CFTR cell surface expression; for Emax: U2OS
[1] = U2OS cell line, 16h compound incubation, geomean values
[2] = in relation to the Emax of the corrector lumacaftor (=100%), U2OS cell line, 16h compound incubation, arithmetic mean values
[3] = U2OS cells, 16h compound incubation, geomean values
[4] = in relation to Emax of corrector lumacaftor (=100%), arithmetic mean values

Sequence of human F508del-CFTR (P13569 with tags, fused parts or gaps DEL508-508): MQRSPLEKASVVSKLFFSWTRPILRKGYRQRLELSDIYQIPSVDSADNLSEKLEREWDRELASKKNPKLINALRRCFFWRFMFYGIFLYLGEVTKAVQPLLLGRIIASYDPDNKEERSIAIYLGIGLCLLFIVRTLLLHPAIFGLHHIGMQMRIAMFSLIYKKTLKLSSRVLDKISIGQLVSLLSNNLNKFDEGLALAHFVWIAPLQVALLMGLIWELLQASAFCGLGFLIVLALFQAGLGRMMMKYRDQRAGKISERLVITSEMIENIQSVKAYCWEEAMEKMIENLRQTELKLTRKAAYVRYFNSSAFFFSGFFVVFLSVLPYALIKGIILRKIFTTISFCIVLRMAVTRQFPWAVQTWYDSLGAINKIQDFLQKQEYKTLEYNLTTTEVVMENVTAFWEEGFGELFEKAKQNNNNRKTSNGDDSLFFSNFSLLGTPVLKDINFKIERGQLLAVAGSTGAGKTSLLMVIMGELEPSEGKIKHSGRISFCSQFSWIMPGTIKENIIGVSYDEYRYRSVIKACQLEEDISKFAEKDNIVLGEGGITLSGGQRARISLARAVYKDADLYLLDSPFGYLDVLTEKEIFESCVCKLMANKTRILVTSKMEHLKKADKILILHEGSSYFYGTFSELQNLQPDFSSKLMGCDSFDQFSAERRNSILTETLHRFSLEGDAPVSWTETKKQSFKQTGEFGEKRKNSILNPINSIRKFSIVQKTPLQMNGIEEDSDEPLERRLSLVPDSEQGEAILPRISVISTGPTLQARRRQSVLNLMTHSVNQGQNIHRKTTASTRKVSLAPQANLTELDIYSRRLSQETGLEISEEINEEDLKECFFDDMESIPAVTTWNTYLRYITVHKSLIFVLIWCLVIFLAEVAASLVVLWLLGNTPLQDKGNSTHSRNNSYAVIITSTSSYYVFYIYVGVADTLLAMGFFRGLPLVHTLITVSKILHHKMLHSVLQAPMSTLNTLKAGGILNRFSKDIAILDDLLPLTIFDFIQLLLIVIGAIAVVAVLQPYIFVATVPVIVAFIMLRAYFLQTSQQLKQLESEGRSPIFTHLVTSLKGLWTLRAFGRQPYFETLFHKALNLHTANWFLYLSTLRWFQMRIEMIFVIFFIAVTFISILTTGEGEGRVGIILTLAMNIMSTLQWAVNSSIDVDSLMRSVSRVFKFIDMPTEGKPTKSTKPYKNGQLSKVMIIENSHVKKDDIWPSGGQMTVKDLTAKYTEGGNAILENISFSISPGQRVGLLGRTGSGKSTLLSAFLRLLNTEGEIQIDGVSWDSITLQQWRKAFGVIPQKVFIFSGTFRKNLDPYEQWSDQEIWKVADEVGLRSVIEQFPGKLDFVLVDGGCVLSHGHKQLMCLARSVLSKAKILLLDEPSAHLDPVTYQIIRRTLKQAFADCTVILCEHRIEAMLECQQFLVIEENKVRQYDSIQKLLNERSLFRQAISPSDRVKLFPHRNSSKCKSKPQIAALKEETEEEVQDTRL

Row | Structure (SMILES) | EC50 [1] [nM] | Emax [2] [%] | EC50 [3] [nM] | Emax [4] [%] | other results
1 | [2H]C1([2H])Oc2ccc3c(c2O1)C(=O)N[C@H](C(=O)NCCc1ccc2c(c1)OCO2)CC(=O)N(C)[C@@H](CC(C)C)C(=O)N(C)CC(=O)N[C@H](Cc1ccccc1)CO3 [Example 322, (8R,14S,18S)-N-(2-(benzo[d][1,3]dioxol-5-yl)ethyl)-8-benzyl-14-isobutyl-12,15-dimethyl-10,13,16,20-tetraoxo-7,8,9,10,11,12,13,14,15,16,17,18,19,20-tetradecahydro-[1,3]dioxolo[4′,5′:5,6]benzo[1,2-p][1]oxa[4,7,10,14]tetraazacycloheptadecine-2,2-d2-18-carboxamide] | 504 | 197 |  |  | 
2 | Cc1cc(CCNC(=O)[C@@H]2CC(=O)N(C)[C@@H](CC(C)C)C(=O)N3CCCC[C@@H]3C(=O)N[C@H](Cc3ccccc3)COc3ccc4c(C)noc4c3C(=O)N2)on1 [Example 629, (8S,12S,18aR,21R)-21-benzyl-12-isobutyl-3,11-dimethyl-N-(2-(3-methylisoxazol-5-yl)ethyl)-6,10,13,19-tetraoxo-6,7,8,9,10,11,12,13,16,17,18,18a,19,20,21,22-hexadecahydro-15H-isoxazolo[4′,5′:5,6]benzo[1,2-p]pyrido[2,1-f][1]oxa[4,7,10,14]tetraazacycloheptadecine-8-carboxamide] |  |  | 521 | 215 | 
3 | CN1C(=O)C[C@@H](C(=O)NCCc2ccc3c(c2)OCO3)NC(=O)c2c(ccc3ccccc23)OC[C@@H](Cc2ccccc2)NC(=O)CN(CC[C@H]2CCCCO2)C(=O)[C@@H]1CC1CCC1 [Example 361, (3S,7S,13R)-N-(2-(benzo[d][1,3]dioxol-5-yl)ethyl)-13-benzyl-7-(cyclobutylmethyl)-6-methyl-1,5,8,11-tetraoxo-9-(2-((R)-tetrahydro-2H-pyran-2-yl)ethyl)-1,2,3,4,5,6,7,8,9,10,11,12,13,14-tetradecahydronaphtho[1,2-p][1]oxa[4,7,10,14]tetraazacycloheptadecine-3-carboxamide] | 264 | 183 |  |  | 
4 | CCOc1cccc(CCNC(=O)[C@@H]2CC(=O)N(C)[C@@H](CC(C)C)C(=O)N3CCN(C4CC4)C[C@H]3C(=O)N[C@H](Cc3ccccc3)COc3cnc4ccccc4c3C(=O)N2)c1 [Example 401, (9S,13S,19aS,22R)-22-benzyl-18-cyclopropyl-N-(3-ethoxyphenethyl)-13-isobutyl-12-methyl-7,11,14,20-tetraoxo-7,8,9,10,11,12,13,14,17,18,19,19a,20,21,22,23-hexadecahydro-16H-pyrazino[2′,1′:6,7][1]oxa[4,7,10,14]tetraazacycloheptadecino[17,16-c]quinoline-9-carboxamide] |  |  | 559 | 189 | 
5 | COc1cccc(CCNC(=O)[C@@H]2CC(=O)N(C)[C@@H](CC3CCCC3)C(=O)N(C[C@@H]3CCCCO3)CC(=O)N[C@H](Cc3ccccc3)COc3ccc4ccccc4c3C(=O)N2)c1 (mixture of isomers) [Example 293, (3RS,7S,13R)-13-benzyl-7-(cyclopentylmethyl)-N-(3-methoxyphenethyl)-6-methyl-1,5,8,11-tetraoxo-9-(((S)-tetrahydro-2H-pyran-2-yl)methyl)-1,2,3,4,5,6,7,8,9,10,11,12,13,14-tetradecahydronaphtho[1,2-p][1]oxa[4,7,10,14]tetraazacycloheptadecine-3-carboxamide] | 340 |  |  |  | 
6 | CC(C)C[C@H]1C(=O)N(C)[C@H](C)C(=O)N[C@H](Cc2ccccc2)COc2ccc3ncc(F)cc3c2C(=O)N[C@H](C(=O)NCCc2nc(C3CC3)no2)CC(=O)N1C [Example 800, (3S,7S,10R,13R)-13-benzyl-N-(2-(3-cyclopropyl-1,2,4-oxadiazol-5-yl)ethyl)-20-fluoro-7-isobutyl-6,9,10-trimethyl-1,5,8,11-tetraoxo-1,2,3,4,5,6,7,8,9,10,11,12,13,14-tetradecahydro-[1]oxa[4,7,10,14]tetraazacycloheptadecino[16,17-f]quinoline-3-carboxamide] |  |  |  |  | EC50 (U2OS cells, 16h compound incubation, geomean of several measurements): 266 nM; Emax (in relation to the Emax of the corrector lumacaftor (=100%), U2OS cells, 16h compound incubation, arithmetic mean): 352%
7 | COc1cc(CCNC(=O)[C@@H]2CC(=O)N(C)[C@@H](CC(C)C)C(=O)N3CCC4(CC4)C[C@@H]3C(=O)N[C@H](Cc3ccccc3)COc3cc(C)nc(OC)c3C(=O)N2)on1 [Example 580, (7′S,11′S,17a′R,20′R)-20′-benzyl-11′-isobutyl-4′-methoxy-N-(2-(3-methoxyisoxazol-5-yl)ethyl)-2′,10′-dimethyl-5′,9′,12′,18′-tetraoxo-5′,6′,7′,8′,9′,10′,11′,12′,14′,15′,17′,17a′,18′,19′,20′,21′-hexadecahydrospiro[cyclopropane-1,16′-dipyrido[2,1-f:3′,4′-p][1]oxa[4,7,10,14]tetraazacycloheptadecine]-7′-carboxamide] |  |  | 198 | 319 | 
8 | CC(C)C[C@H]1C(=O)N2CCN(C3CC3)C[C@H]2C(=O)N[C@H](Cc2ccccc2)COc2cnc3ccccc3c2C(=O)N[C@H](C(=O)NCCc2nc3c(s2)CCC3)CC(=O)N1C [Example 405, (9S,13S,19aS,22R)-22-benzyl-18-cyclopropyl-N-(2-(5,6-dihydro-4H-cyclopenta[d]thiazol-2-yl)ethyl)-13-isobutyl-12-methyl-7,11,14,20-tetraoxo-7,8,9,10,11,12,13,14,17,18,19,19a,20,21,22,23-hexadecahydro-16H-pyrazino[2′,1′:6,7][1]oxa[4,7,10,14]tetraazacycloheptadecino[17,16-c]quinoline-9-carboxamide] |  |  | 343 | 171 | 
9 | COc1cccc(CCNC(=O)[C@@H]2CC(=O)N(C)[C@@H](CC(C)C)C(=O)N(C)CC(=O)N[C@H](Cc3ccccc3)COc3cc(OC)c(OC)cc3C(=O)N2)c1 [Example 195, (3R,9S,13S)-3-benzyl-9-isobutyl-17,18-dimethoxy-N-(3-methoxyphenethyl)-7,10-dimethyl-5,8,11,15-tetraoxo-2,3,4,5,6,7,8,9,10,11,12,13,14,15-tetradecahydrobenzo[p][1]oxa[4,7,10,14]tetraazacycloheptadecine-13-carboxamide] | 889 | 202 |  |  | 
10 | Cc1cc(CCNC(=O)[C@@H]2CC(=O)N(C)[C@@H](CC(C)C)C(=O)N3CCCC[C@@H]3C(=O)N[C@H](Cc3ccccc3)COc3ccc4nc(C)oc4c3C(=O)N2)on1 [Example 632, (8S,12S,18aR,21R)-21-benzyl-12-isobutyl-4,11-dimethyl-N-(2-(3-methylisoxazol-5-yl)ethyl)-6,10,13,19-tetraoxo-6,7,8,9,10,11,12,13,16,17,18,18a,19,20,21,22-hexadecahydro-15H-oxazolo[4′,5′:5,6]benzo[1,2-p]pyrido[2,1-f][1]oxa[4,7,10,14]tetraazacycloheptadecine-8-carboxamide] |  |  | 927 | 326 | 
11 | COc1cccc2c1C(=O)N[C@H](C(=O)NCCn1nc(C)cc1C)CC(=O)N(C)[C@@H](CC(C)C)C(=O)N(CCC1CCCCC1)CC(=O)N[C@H](Cc1ccccc1)CO2 [Example 209, (3R,9S,13S)-3-benzyl-7-(2-cyclohexylethyl)-N-(2-(3,5-dimethyl-1H-pyrazol-1-yl)ethyl)-9-isobutyl-16-methoxy-10-methyl-5,8,11,15-tetraoxo-2,3,4,5,6,7,8,9,10,11,12,13,14,15-tetradecahydrobenzo[p][1]oxa[4,7,10,14]tetraazacycloheptadecine-13-carboxamide] | 392 | 118 |  |  | 
